In ChEMBL document CHEMBL3885861, “Open TG-GATES”:

Species: Rattus norvegicus
Assay: Open TG-GATES - Regimen: Daily Repeat
Format: toxicity, organism-based, Sprague-Dawley
Parameters: regimen Daily Repeat, gender Male, age 6 weeks
Conditions: in vivo, po, 0 mg/kg, route gavage, dose level Control; for APTT / Bas / Eos / Fbg / Hb / Ht / Lym / MCH / MCHC / MCV / Mono / Neu / PT / Plat / RBC / Ret / WBC: tissue Blood; for KIDNEY_L / KIDNEY_R / KIDNEY_TOTAL: tissue Kidney; for LIVER: tissue Liver; for A/G / ALP / ALT / AST / BUN / CRE / Ca / Cl / DBIL / GLC / IP / K / LDH / Na / PL / RALB / TBIL / TC / TG / TP / gamma-GTP: tissue Plasma

SMILES: COc1ccc(O)c(C(C)(C)C)c1.COc1ccc(O)cc1C(C)(C)C [BUTYLATED HYDROXYANISOLE]
- TERMINAL_BW (72 h, time 3 day): 225.6 g
- APTT (72 h, time 3 day): 15.7 s
- Bas (72 h, time 3 day): 0.2%
- Eos (72 h, time 3 day): 0.8%
- Fbg (72 h, time 3 day): 265.6 mg/dL
- Hb (72 h, time 3 day): 12.9 g/dL
- Ht (72 h, time 3 day): 38%
- Lym (72 h, time 3 day): 71.6%
- MCH (72 h, time 3 day): 20.9 pg
- MCHC (72 h, time 3 day): 34%
- MCV (72 h, time 3 day): 61.5 fL
- Mono (72 h, time 3 day): 2.4%
- Neu (72 h, time 3 day): 24.3%
- PT (72 h, time 3 day): 11.5 s
- Plat (72 h, time 3 day): 140.6 x10_4/uL
- RBC (72 h, time 3 day): 619 x10_4/ul
- Ret (72 h, time 3 day): 6.6%
- WBC (72 h, time 3 day): 90.7 x10_2/uL
- KIDNEY_L (72 h, time 3 day): 0.9 g
- KIDNEY_R (72 h, time 3 day): 0.9 g
- KIDNEY_TOTAL (72 h, time 3 day): 1.9 g
- LIVER (72 h, time 3 day): 10.1 g
- A/G (72 h, time 3 day): 0.8
- ALP (72 h, time 3 day): 1690.8 IU/L
- ALT (72 h, time 3 day): 37.2 IU/L
- AST (72 h, time 3 day): 66.4 IU/L
- BUN (72 h, time 3 day): 12.8 mg/dL
- CRE (72 h, time 3 day): 0.2 mg/dL
- Ca (72 h, time 3 day): 11.2 mg/dL
- Cl (72 h, time 3 day): 106 meq/L
- DBIL (72 h, time 3 day): 0.02 mg/dL
- GLC (72 h, time 3 day): 178.4 mg/dL
- IP (72 h, time 3 day): 7.3 mg/dL
- K (72 h, time 3 day): 4 meq/L
- LDH (72 h, time 3 day): 60.4 IU/L
- Na (72 h, time 3 day): 143 meq/L
- PL (72 h, time 3 day): 136.2 mg/dL
- RALB (72 h, time 3 day): 2.6 g/dL
- TBIL (72 h, time 3 day): 0.064 mg/dL
- TC (72 h, time 3 day): 76.8 mg/dL
- TG (72 h, time 3 day): 69.4 mg/dL
- TP (72 h, time 3 day): 5.8 g/dL
- gamma-GTP (72 h, time 3 day): 1 IU/L
- TERMINAL_BW ([…], time 7 day): 252.9 g
- TERMINAL_BW ([…], time 14 day): 320.1 g
- TERMINAL_BW ([…], time 28 day): 409.6 g
- APTT ([…], time 7 day): 19 s
- Bas ([…], time 7 day): 0.3%
- Eos ([…], time 7 day): 0.8%
- Fbg ([…], time 7 day): 288.2 mg/dL
- Hb ([…], time 7 day): 13.5 g/dL
- Ht ([…], time 7 day): 38.9%
- Lym ([…], time 7 day): 76.5%
- MCH ([…], time 7 day): 20.8 pg
- MCHC ([…], time 7 day): 34.7%
- MCV ([…], time 7 day): 60.1 fL
- Mono ([…], time 7 day): 2.5%
- Neu ([…], time 7 day): 19.2%
- PT ([…], time 7 day): 12.2 s
- Plat ([…], time 7 day): 135.8 x10_4/uL
- RBC ([…], time 7 day): 647.4 x10_4/ul
- Ret ([…], time 7 day): 5.1%
- WBC ([…], time 7 day): 94.6 x10_2/uL
- APTT ([…], time 14 day): 16.9 s
- Bas ([…], time 14 day): 0.3%
- Eos ([…], time 14 day): 0.6%
- Fbg ([…], time 14 day): 269.2 mg/dL
- Hb ([…], time 14 day): 13.9 g/dL
- Ht ([…], time 14 day): 40.5%
- Lym ([…], time 14 day): 78.2%
- MCH ([…], time 14 day): 19.9 pg
- MCHC ([…], time 14 day): 34.4%
- MCV ([…], time 14 day): 57.8 fL
- Mono ([…], time 14 day): 1.9%
- Neu ([…], time 14 day): 18.2%
- PT ([…], time 14 day): 12.2 s
- Plat ([…], time 14 day): 143.4 x10_4/uL
- RBC ([…], time 14 day): 700.6 x10_4/ul
- Ret ([…], time 14 day): 3.6%
- WBC ([…], time 14 day): 111.3 x10_2/uL
- APTT ([…], time 28 day): 17.9 s
- Bas ([…], time 28 day): 0.4%
- Eos ([…], time 28 day): 0.9%
- Fbg ([…], time 28 day): 262.8 mg/dL
- Hb ([…], time 28 day): 15 g/dL
- Ht ([…], time 28 day): 41.8%
- Lym ([…], time 28 day): 78.1%
- MCH ([…], time 28 day): 19.5 pg
- MCHC ([…], time 28 day): 35.9%
- MCV ([…], time 28 day): 54.4 fL
- Mono ([…], time 28 day): 1.8%
- Neu ([…], time 28 day): 18.2%
- PT ([…], time 28 day): 12.3 s
- Plat ([…], time 28 day): 121 x10_4/uL
- RBC ([…], time 28 day): 769 x10_4/ul
- Ret ([…], time 28 day): 2.3%
- WBC ([…], time 28 day): 105.1 x10_2/uL
- KIDNEY_L ([…], time 7 day): 1 g
- KIDNEY_R ([…], time 7 day): 1 g
- KIDNEY_TOTAL ([…], time 7 day): 2 g
- KIDNEY_L ([…], time 14 day): 1.2 g
- KIDNEY_R ([…], time 14 day): 1.2 g
- KIDNEY_TOTAL ([…], time 14 day): 2.3 g
- KIDNEY_L ([…], time 28 day): 1.3 g
- KIDNEY_R ([…], time 28 day): 1.3 g
- KIDNEY_TOTAL ([…], time 28 day): 2.6 g
- LIVER ([…], time 7 day): 11.4 g
- LIVER ([…], time 14 day): 14.3 g
- LIVER ([…], time 28 day): 16.7 g
- A/G ([…], time 7 day): 0.8
- ALP ([…], time 7 day): 1903.8 IU/L
- ALT ([…], time 7 day): 44.4 IU/L
- AST ([…], time 7 day): 67 IU/L
- BUN ([…], time 7 day): 16 mg/dL
- CRE ([…], time 7 day): 0.2 mg/dL
- Ca ([…], time 7 day): 11 mg/dL
- Cl ([…], time 7 day): 104.8 meq/L
- DBIL ([…], time 7 day): 0.02 mg/dL
- GLC ([…], time 7 day): 180.2 mg/dL
- IP ([…], time 7 day): 7 mg/dL
- K ([…], time 7 day): 4.1 meq/L
- LDH ([…], time 7 day): 58.2 IU/L
- Na ([…], time 7 day): 142 meq/L
- PL ([…], time 7 day): 135.4 mg/dL
- RALB ([…], time 7 day): 2.6 g/dL
- TBIL ([…], time 7 day): 0.048 mg/dL
- TC ([…], time 7 day): 70.6 mg/dL
- TG ([…], time 7 day): 95.2 mg/dL
- TP ([…], time 7 day): 5.9 g/dL
- gamma-GTP ([…], time 7 day): 1 IU/L
- A/G ([…], time 14 day): 0.8
- ALP ([…], time 14 day): 1384.2 IU/L
- ALT ([…], time 14 day): 32 IU/L
- AST ([…], time 14 day): 57.6 IU/L
- BUN ([…], time 14 day): 14.4 mg/dL
- CRE ([…], time 14 day): 0.2 mg/dL
- Ca ([…], time 14 day): 10.7 mg/dL
- Cl ([…], time 14 day): 105.8 meq/L
- DBIL ([…], time 14 day): 0.018 mg/dL
- GLC ([…], time 14 day): 181.4 mg/dL
- IP ([…], time 14 day): 6.6 mg/dL
- K ([…], time 14 day): 3.7 meq/L
- LDH ([…], time 14 day): 52 IU/L
- Na ([…], time 14 day): 143 meq/L
- PL ([…], time 14 day): 137 mg/dL
- RALB ([…], time 14 day): 2.7 g/dL
- TBIL ([…], time 14 day): 0.048 mg/dL
- TC ([…], time 14 day): 72.8 mg/dL
- TG ([…], time 14 day): 133.8 mg/dL
- TP ([…], time 14 day): 6 g/dL
- gamma-GTP ([…], time 14 day): 1 IU/L
- A/G ([…], time 28 day): 0.7
- ALP ([…], time 28 day): 1254.6 IU/L
- ALT ([…], time 28 day): 32.6 IU/L
- AST ([…], time 28 day): 57.6 IU/L
- BUN ([…], time 28 day): 17.8 mg/dL
- CRE ([…], time 28 day): 0.3 mg/dL
- Ca ([…], time 28 day): 10.8 mg/dL
- Cl ([…], time 28 day): 104.8 meq/L
- DBIL ([…], time 28 day): 0.02 mg/dL
- GLC ([…], time 28 day): 191 mg/dL
- IP ([…], time 28 day): 5.4 mg/dL
- K ([…], time 28 day): 4 meq/L
- LDH ([…], time 28 day): 62.2 IU/L
- Na ([…], time 28 day): 143.2 meq/L
- PL ([…], time 28 day): 134.6 mg/dL
- RALB ([…], time 28 day): 2.6 g/dL
- TBIL ([…], time 28 day): 0.054 mg/dL
- TC ([…], time 28 day): 68.6 mg/dL
- TG ([…], time 28 day): 179.6 mg/dL
- TP ([…], time 28 day): 6.2 g/dL
- gamma-GTP ([…], time 28 day): 1 IU/L
